Test [1] concerns Monocyte. In words: Compound was tested for inhibition of LTC4 release in the human monocytic cell line; NI means no inhibition observed. The test is classed as functional, cell-based.
For test [2], the target named is T1, Polyunsaturated fatty acid 5-lipoxygenase (Homo sapiens) (UniProt P09917).
T1 sequence (whole entry): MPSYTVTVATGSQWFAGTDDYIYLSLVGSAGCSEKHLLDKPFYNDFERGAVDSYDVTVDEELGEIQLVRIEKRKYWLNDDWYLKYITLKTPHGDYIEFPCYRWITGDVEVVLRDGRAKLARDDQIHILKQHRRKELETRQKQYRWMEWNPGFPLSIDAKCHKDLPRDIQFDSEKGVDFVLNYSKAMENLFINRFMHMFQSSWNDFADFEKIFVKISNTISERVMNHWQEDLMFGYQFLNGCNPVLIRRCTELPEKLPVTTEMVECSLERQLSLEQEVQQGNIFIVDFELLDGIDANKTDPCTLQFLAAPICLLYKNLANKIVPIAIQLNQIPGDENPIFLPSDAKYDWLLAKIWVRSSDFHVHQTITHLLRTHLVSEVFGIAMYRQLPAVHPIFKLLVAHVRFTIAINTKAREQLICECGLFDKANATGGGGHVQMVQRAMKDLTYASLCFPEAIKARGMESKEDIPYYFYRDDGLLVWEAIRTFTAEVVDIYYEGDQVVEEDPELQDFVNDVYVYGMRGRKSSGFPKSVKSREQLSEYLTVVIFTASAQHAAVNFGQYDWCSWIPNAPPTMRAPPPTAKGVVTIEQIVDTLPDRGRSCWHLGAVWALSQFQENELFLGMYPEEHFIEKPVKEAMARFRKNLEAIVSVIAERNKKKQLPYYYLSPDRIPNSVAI
In words: Compound was tested for inhibition of 5-lipoxygenase at 50 uM; NI means no inhibition was observed.

Test [3] deals with Monocyte. In words: Compound was tested for inhibition of LTC4 release in the human monocytic cell line at 30 uM. The test is classed as functional.

The record followed here is ChEMBL document CHEMBL1130442, “Tetrazole is an effective Sn-3 phosphate replacement in substrate analog inhibitors of 14 kDa phospholipase A2” (Bioorg Med Chem Lett, 1997).

Usually inhibition stands for the change of the read-out against control, counted positive when it falls.

In the case of `CCCCCCCCOC[C@H](COP(=O)(O)OCCN)OP(=O)(O)CCCCCCC`, the inhibition entry in test [1] was “No inhibition”.
`CCCCCCCCCCCCC(=O)NC(COCCC)COP(=O)(O)OCCO` (centres undefined): in test [1], the inhibition result was “No inhibition”.
Turning to `CCCCCCCCCCCCCCCCCCOCC(CCc1nnn[nH]1)NC(C)=O` (centres undefined), the inhibition entry in test [2] is “No inhibition”. In addition, the inhibition at 30 µM in test [3] was 75%.
